pEC50: −log10 of the molar value. Read-outs that look alike come from different tables or passages of the source.
Target: human GLP-1R (Homo sapiens, UniProt P43220, G168S)
Experiment: CHO GLP-1R Clone H6 cAMP HTRF agonist assay (Assay 1, high receptor density)
Format: cell-based
Details: for pEC50: CHO GLP-1R clone H6, cAMP HTRF, geometric mean; for Emax: arithmetic mean
Excerpt: In Table 5 and Table 6, assay data are presented to two (2) significant figures as the geometric mean (EC50s) and arithmetic mean (Emax) based on the number of replicates listed (Number). A blank cell means there was no data for that Example or the Emax was not calculated.

[1] = CHO GLP-1R clone H6, relative to saturating GLP-1 (1 μM), read-out: Assay 1 Emax (%)

Chain of human GLP-1R (P43220 24-463 G168S): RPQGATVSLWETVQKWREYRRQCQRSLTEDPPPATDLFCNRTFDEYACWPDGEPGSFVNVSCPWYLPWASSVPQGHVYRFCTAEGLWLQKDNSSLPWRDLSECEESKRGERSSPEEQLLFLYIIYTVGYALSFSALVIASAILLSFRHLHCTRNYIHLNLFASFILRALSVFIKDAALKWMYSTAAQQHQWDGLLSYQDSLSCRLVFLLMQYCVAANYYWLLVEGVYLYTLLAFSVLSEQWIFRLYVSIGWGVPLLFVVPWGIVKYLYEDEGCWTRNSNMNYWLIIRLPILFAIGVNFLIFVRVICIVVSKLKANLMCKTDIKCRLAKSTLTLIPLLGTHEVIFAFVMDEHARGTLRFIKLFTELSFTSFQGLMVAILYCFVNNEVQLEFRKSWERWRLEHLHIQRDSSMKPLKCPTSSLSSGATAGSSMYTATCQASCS

| SMILES | pEC50 | Emax [1] | Emax (relative to saturating full agonist GLP-1 (1 μM), read-out: Assay 1 Emax) |
| --- | --- | --- | --- |
| COCCn1c(CN2CCC(c3cccc4c3OC(C)(c3ccc(C#N)cn3)O4)CC2)nc2ccc(C(=O)O)cc21 (stereo not drawn) [Compound 98B, ammonium 2-({4-[2-(5-cyanopyridin-2-yl)-2-methyl-1,3-benzodioxol-4-yl]piperidin-1-yl}methyl)-1-(2-methoxyethyl)-1H-benzimidazole-6-carboxylate, ENT-X2] | – | – | 89% |
| N#Cc1ccc(COc2cccc(C3CCN(Cc4nc5ccc(C(=O)O)cc5n4CC4CCO4)CC3)n2)c(F)c1 (stereo not shown) [Compound 109B, 2-[(4-{6-[(4-cyano-2-fluorobenzyl)oxy]pyridin-2-yl}piperidin-1-yl)methyl]-1-[oxetan-2-ylmethyl]-1H-benzimidazole-6-carboxylic acid] | – | 83% | – |
| O=C(O)c1ccc2nc(CN3CCC(c4cccc(OCc5ccc(F)cc5F)n4)CC3)n(C[C@@H]3CCO3)c2n1 [Compound 118B, 2-[(4-{6-[(2,4-difluorobenzyl)oxy]pyridin-2-yl}piperidin-1-yl)methyl]-3-[(2S)-oxetan-2-ylmethyl]-3H-imidazo[4,5-b] pyridine-5-carboxylic acid] | 6.12 | 76% | – |
| O=C(O)c1ccc2nc(CN3CCN(c4cccc(OCc5ccc(Cl)cc5F)n4)CC3)n(C[C@@H]3CCO3)c2c1 [Compound 119B, 2-[(4-{6-[(4-chloro-2-fluorobenzyl)oxy]pyridin-2-yl}piperazin-1-yl)methyl]-1-[(2S)-oxetan-2-ylmethyl]-1H-benzimidazole-6-carboxylic acid] | 6.68 | 66% | – |
| O=C(O)c1ccc2nc(CN3CCC(c4cccc(OCc5ccc(Cl)cc5F)n4)CC3)n(C[C@H]3CCOC3)c2c1 [Compound 121B, 2-[(4-{6-[(4-chloro-2-fluorobenzyl)oxy]pyridin-2-yl}piperidin-1-yl)methyl]-1-[(3R)-tetrahydrofuran-3-ylmethyl]-1H-benzimidazole-6-carboxylic acid] | < 4.70 | – | – |
| N#Cc1ccc(COc2cccc(C3CCN(Cc4nc5ccc(C(=O)O)cc5n4C[C@@H]4CCO4)CC3)n2)cc1 [Compound 130B, 2-[(4-{6-[(4-cyanobenzyl)oxy]pyridin-2-yl}piperidin-1-yl)methyl]-1-[(2S)-oxetan-2-ylmethyl]-1H-benzimidazole-6-carboxylic acid] | < 4.96 | 84% | – |
| C[C@H]1CN(c2cccc(OCc3ccc(Cl)cc3F)n2)CCN1Cc1nc2ccc(C(=O)O)cc2n1Cc1cnco1 [Compound 147B, 2-{[(2S)-4-{6-[(4-chloro-2-fluorobenzyl)oxy]pyridin-2-yl}-2-methylpiperazin-1-yl]methyl}-1-(1,3-oxazol-5-ylmethyl)-1H-benzimidazole-6-carboxylic acid] | 6.68 | 79% | – |
| C[C@H]1CN(c2cccc(OCc3ccc(Cl)cc3F)n2)CCN1Cc1nc2ccc(C(=O)O)cc2n1Cc1ncco1 [Compound 148B, 2-{[(2S)-4-{6-[(4-chloro-2-fluorobenzyl)oxy]pyridin-2-yl}-2-methylpiperazin-1-yl]methyl}-1-(1,3-oxazol-2-ylmethyl)-1H-benzimidazole-6-carboxylic acid] | 6.47 | 74% | – |
| CCn1cncc1Cn1c(CN2CCN(c3cccc(OCc4ccc(C#N)cc4F)n3)CC2)nc2ccc(C(=O)O)cc21 [Compound 152B, 2-[(4-{6-[(4-cyano-2-fluorobenzyl)oxy]pyridin-2-yl}piperazin-1-yl)methyl]-1-[(1-ethyl-1H-imidazol-5-yl)methyl]-1H-benzimidazole-6-carboxylic acid] | 6.43 | 75% | – |
| COCCn1c(CN2CCC(c3cccc(OCc4ccc(C#N)cc4)n3)CC2)nc2ccc(C(=O)O)c(F)c21 [Compound 169B, 2-[(4-{6-[(4-cyanobenzyl)oxy]pyridin-2-yl}piperidin-1-yl)methyl]-7-fluoro-1-(2-methoxyethyl)-1H-benzimidazole-6-carboxylic acid] | 5.92 | 78% | – |
| COCCn1c(CN2CCN(c3cccc(OCc4ccc(C#N)cc4)n3)CC2)nc2ccc(C(=O)O)cc21 [Compound 171B, 2-[(4-{6-[(4-cyanobenzyl)oxy]pyridin-2-yl}piperazin-1-yl)methyl]-1-(2-methoxyethyl)-1H-benzimidazole-6-carboxylic acid] | 6.70 | 79% | – |

More lines, now with the values ahead:

| pEC50 | Emax [1] | Emax (relative to saturating full agonist GLP-1 (1 μM), read-out: Assay 1 Emax) | SMILES |
| --- | --- | --- | --- |
| 6.06 | – | – | COCCn1c(CN2CCN(c3ccc(F)c(OCc4ccc(Cl)cc4F)n3)CC2C)nc2ccc(C(=O)O)cc21 (stereo in doubt) [Compound 174B, 2-{[(2S)-4-{6-[(4-chloro-2-fluorobenzyl)oxy]-5-fluoropyridin-2-yl}-2-methylpiperazin-1-yl]methyl}-1-(2-methoxyethyl)-1H-benzimidazole-6-carboxylic acid] |
| 7.12 | 69% | – | CO[C@@H]1CCC[C@H]1n1c(CN2CCC(c3cccc(OCc4ccc(Cl)cc4F)n3)CC2)nc2ccc(C(=O)O)cc21 (stereo in doubt) [Compound 194B, 2-[(4-{6-[(4-chloro-2-fluorobenzyl)oxy]pyridin-2-yl}piperidin-1-yl)methyl]-1-[(1R,2R)-2-methoxycyclopentyl]-1H-benzimidazole-6-carboxylic acid] |
| < 4.70 | – | – | CN1CC[C@@H]1Cn1c(CN2CCC(c3cccc(OCc4ccc(Cl)cc4F)n3)CC2)nc2ccc(C(=O)O)cc21 (stereo in doubt) [Compound 275B, 2-[(4-{6-[(4-chloro-2-fluorobenzyl)oxy]pyridin-2-yl}piperidin-1-yl)methyl]-1-[(1-methylazetidin-2-yl)methyl]-1H-benzimidazole-6-carboxylic acid] |
| 5.54 | – | – | COCCn1c(CN2CCN(c3cccc(OCc4ccc(C#N)cc4)n3)C[C@@H]2C)nc2ccc(C(=O)O)cc21 [Compound 172B, 2-{[(2S)-4-{6-[(4-cyanobenzyl)oxy]pyridin-2-yl}-2-methylpiperazin-1-yl]methyl}-1-(2-methoxyethyl)-1H-benzimidazole-6-carboxylic acid] |
| 5.57 | 85% | – | COCCn1c(CN2CCN(c3cccc(OCc4ccc(C#N)cc4F)n3)C[C@@H]2C)nc2ccc(C(=O)O)cc21 [Compound 173B, 2-{[(2S)-4-{6-[(4-cyano-2-fluorobenzyl)oxy]pyridin-2-yl}-2-methylpiperazin-1-yl]methyl}-1-(2-methoxyethyl)-1H-benzimidazole-6-carboxylic acid] |
| 5.62 | 87% | – | COCCn1c(CN2CCC(c3cccc(OCc4ccc(Cl)cc4F)n3)CC2)nc2ccc(C(=O)O)cc21 [Compound 176B, 2-[(4-{6-[(4-chloro-2-fluorobenzyl)oxy]pyridin-2-yl}piperidin-1-yl)methyl]-1-(2-methoxyethyl)-1H-benzimidazole-6-carboxylic acid] |
| 6.06 | – | – | COC1(Cn2c(CN3CCC(c4cccc(OCc5ccc(Cl)cc5F)n4)CC3)nc3ccc(C(=O)O)cc32)CCC1 [Compound 177B, 2-[(4-{6-[(4-chloro-2-fluorobenzyl)oxy]pyridin-2-yl}piperidin-1-yl)methyl]-1-[(1-methoxycyclobutyl)methyl]-1H-benzimidazole-6-carboxylic acid] |
| 5.35 | 48% | – | COCCn1c(CN2CCC(c3ccc(F)c(OCc4ccc(Cl)cc4F)n3)CC2)nc2ccc(C(=O)O)cc21 [Compound 178B, 2-[(4-{6-[(4-chloro-2-fluorobenzyl)oxy]-5-fluoropyridin-2-yl}piperidin-1-yl)methyl]-1-(2-methoxyethyl)-1H-benzimidazole-6-carboxylic acid] |
| 5.80 | 83% | – | COCCn1c(CN2CCN(c3nc(OCc4ccc(Cl)cc4F)ccc3F)CC2)nc2ccc(C(=O)O)cc21 [Compound 179B, 2-[(4-{6-[(4-chloro-2-fluorobenzyl)oxy]-3-fluoropyridin-2-yl}piperazin-1-yl)methyl]-1-(2-methoxyethyl)-1H-benzimidazole-6-carboxylic acid] |
| < 4.77 | 100% | – | COCCn1c(CN2CCN(c3nc(OCc4ccc(Cl)cc4F)ccc3F)C[C@@H]2C)nc2ccc(C(=O)O)cc21 [Compound 180B, 2-{[(2S)-4-{6-[(4-chloro-2-fluorobenzyl)oxy]-3-fluoropyridin-2-yl}-2-methylpiperazin-1-yl]methyl}-1-(2-methoxyethyl)-1H-benzimidazole-6-carboxylic acid] |
| 6.77 | 68% | – | COCCn1c(CN2CCC(c3cccc(OCc4ccccc4)n3)CC2)nc2ccc(C(=O)O)cc21 [Compound 181B, 2-({4-[6-(benzyloxy)pyridin-2-yl]piperidin-1-yl}methyl)-1-(2-methoxyethyl)-1H-benzimidazole-6-carboxylic acid] |
| 5.74 | 93% | – | COCCn1c(CN2CCN(c3cccc(OCc4ccc(Cl)cc4F)n3)C(C)(C)C2)nc2ccc(C(=O)O)cc21 [Compound 182B, 2-[(4-{6-[(4-chloro-2-fluorobenzyl)oxy]pyridin-2-yl}-3,3-dimethylpiperazin-1-yl)methyl]-1-(2-methoxyethyl)-1H-benzimidazole-6-carboxylic acid] |
| 5.77 | 82% | – | Cn1cncc1Cn1c(CN2CCC(c3cccc(OCc4ccc(F)cc4F)n3)CC2)nc2ccc(C(=O)O)cc21 [Compound 186B, 2-[(4-{6-[(2,4-difluorobenzyl)oxy]pyridin-2-yl}piperidin-1-yl)methyl]-1-[(1-methyl-1H-imidazol-5-yl)methyl]-1H-benzimidazole-6-carboxylic acid] |
| 6.72 | 71% | – | O=C(O)c1cnc2nc(CN3CCC(c4cccc(OCc5ccc(Cl)cc5F)n4)CC3)n(CC(F)(F)F)c2c1 [Compound 212B, 2-[(4-{6-[(4-chloro-2-fluorobenzyl)oxy]pyridin-2-yl}piperidin-1-yl)methyl]-1-(2,2,2-trifluoroethyl)-1H-imidazo[4,5-b]pyridine-6-carboxylic acid] |

— patent US20250235460A1, “COMBINATION THERAPY USING GLUCOSE-DEPENDENT INSULINOTROPIC POLYPEPTIDE RECEPTOR ANTAGONIST COMPOUNDS AND GLP-1 RECEPTOR AGONIST COMPOUNDS” (Pfizer Inc., priority 2024, published 2025)
